Test results taken from patent US11021444B2, “Antiviral compounds” (priority 2013, dated 2021).
Where two headings read alike, the source gives them in different places.

Key:
[1] = Cytotoxicity Determination (CCK-8, without addition of virus); assay type: cell-based; details: human, 50% cytotoxicity concentration (CC50)
Method: (§1) CPE reduction assays are performed as described by Sidwell and Huffman et al., Appl. Microbiol. (1971) 22(5):797-801 with slight modifications. HEp-2 cells (ATCC #, CCL-23) are seeded at a density of 1,500 cells/30 μl/well into the 384-well cell plate(s) (Corning #3701) one day prior to the assay. Compounds are added into 384-well cell plates by Labcyte POD 810 Plate Assembler system. Each of the test compounds is provided to duplicate wells of a 384-well cell plate at final concentrations starting from 100 μM or 1 μM using 1/3 stepwise dilutions for 9 points. Quick-thaw Respiratory Syncytial Virus (RSV) long strain (ATCC #VR-26) stock in a 37° C. water bath. Place on ice until ready to use. Viruses are diluted to the concentration of 100 TCID50/30 μL with medium and 30 μl diluted RSV are added into related wells of 384-well cell plates. For each plate, sixteen wells are set aside as uninfected, untreated cell controls (CC), and nine wells per test plate receive virus only as a control for virus replication (VC). The final DMSO concentration of all wells is 1%. Place the plates at 37° C., 5% CO2 for 5 days.
In order to determine the compound cytotoxicity, in parallel, each of the compounds is applied to duplicate wells in a 384-well cell plate at serial final concentrations starting from 100 μM using 1/2 stepwise dilutions for 7 points without addition of virus. Incubate the cells at 37° C., 5% CO2 for 5 days. Add 6 μL CCK-8 into each well and incubate in a CO2 incubator at 37° C. for 3-4 hours.

recombinant RSV complex = recombinant RSV complex (Human respiratory syncytial virus A, UniProt P28887); assay: RSV Polymerase Inhibition Assay; assay type: biochemical
Sequence of recombinant RSV complex (P28887 whole entry): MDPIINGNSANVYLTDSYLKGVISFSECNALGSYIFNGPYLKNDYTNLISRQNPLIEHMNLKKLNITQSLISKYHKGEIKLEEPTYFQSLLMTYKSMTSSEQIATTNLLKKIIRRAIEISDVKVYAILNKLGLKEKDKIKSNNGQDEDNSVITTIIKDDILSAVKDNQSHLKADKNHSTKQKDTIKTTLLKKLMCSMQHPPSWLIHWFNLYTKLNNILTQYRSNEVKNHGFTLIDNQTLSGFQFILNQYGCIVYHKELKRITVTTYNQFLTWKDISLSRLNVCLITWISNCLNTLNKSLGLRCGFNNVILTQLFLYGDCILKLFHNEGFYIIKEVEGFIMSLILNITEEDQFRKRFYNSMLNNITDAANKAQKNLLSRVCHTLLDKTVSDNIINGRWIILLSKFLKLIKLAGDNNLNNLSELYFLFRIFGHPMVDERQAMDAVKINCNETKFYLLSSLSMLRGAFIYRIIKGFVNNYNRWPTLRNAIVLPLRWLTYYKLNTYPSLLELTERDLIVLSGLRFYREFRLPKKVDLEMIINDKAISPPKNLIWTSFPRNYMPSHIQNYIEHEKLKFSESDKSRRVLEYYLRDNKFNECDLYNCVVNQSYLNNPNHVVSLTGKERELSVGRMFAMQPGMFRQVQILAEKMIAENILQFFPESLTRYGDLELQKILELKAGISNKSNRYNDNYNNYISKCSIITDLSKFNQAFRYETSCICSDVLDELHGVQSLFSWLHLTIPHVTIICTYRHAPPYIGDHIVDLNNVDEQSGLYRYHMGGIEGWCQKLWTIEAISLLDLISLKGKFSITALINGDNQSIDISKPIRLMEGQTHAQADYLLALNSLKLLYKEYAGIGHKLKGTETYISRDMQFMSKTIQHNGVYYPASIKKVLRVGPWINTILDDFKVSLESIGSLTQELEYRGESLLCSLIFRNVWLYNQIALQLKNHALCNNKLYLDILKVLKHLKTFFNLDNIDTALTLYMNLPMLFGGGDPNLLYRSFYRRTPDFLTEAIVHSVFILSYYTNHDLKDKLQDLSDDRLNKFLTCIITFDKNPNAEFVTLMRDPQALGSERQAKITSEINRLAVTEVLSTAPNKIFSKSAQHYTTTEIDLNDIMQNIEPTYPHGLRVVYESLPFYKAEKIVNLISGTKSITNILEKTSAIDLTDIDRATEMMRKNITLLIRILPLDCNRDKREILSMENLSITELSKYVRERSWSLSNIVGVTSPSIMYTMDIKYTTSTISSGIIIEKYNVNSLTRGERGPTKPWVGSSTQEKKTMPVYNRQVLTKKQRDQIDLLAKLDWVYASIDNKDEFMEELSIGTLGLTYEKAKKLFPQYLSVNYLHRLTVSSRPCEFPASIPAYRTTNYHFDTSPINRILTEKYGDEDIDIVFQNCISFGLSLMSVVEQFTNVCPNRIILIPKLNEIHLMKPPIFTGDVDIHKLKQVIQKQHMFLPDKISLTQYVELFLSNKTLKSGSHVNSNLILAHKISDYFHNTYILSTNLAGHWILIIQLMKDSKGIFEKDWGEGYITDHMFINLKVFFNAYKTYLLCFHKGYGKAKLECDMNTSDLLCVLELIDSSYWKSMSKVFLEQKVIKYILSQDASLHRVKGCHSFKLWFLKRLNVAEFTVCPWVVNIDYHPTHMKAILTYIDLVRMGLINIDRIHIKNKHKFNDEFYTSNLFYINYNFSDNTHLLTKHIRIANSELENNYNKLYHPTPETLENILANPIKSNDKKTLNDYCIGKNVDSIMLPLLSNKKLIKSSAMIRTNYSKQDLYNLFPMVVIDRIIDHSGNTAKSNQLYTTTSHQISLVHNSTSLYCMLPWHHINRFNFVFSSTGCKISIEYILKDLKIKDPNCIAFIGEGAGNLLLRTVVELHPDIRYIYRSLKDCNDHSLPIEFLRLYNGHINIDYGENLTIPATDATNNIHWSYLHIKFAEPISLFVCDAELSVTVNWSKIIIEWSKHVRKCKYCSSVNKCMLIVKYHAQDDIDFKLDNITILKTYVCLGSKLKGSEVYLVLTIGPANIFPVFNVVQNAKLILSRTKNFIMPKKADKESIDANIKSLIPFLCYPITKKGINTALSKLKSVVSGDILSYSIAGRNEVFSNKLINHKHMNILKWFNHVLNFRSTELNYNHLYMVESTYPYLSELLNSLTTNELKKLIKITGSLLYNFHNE
Sequence of recombinant RSV complex (P03421 whole entry, further chain): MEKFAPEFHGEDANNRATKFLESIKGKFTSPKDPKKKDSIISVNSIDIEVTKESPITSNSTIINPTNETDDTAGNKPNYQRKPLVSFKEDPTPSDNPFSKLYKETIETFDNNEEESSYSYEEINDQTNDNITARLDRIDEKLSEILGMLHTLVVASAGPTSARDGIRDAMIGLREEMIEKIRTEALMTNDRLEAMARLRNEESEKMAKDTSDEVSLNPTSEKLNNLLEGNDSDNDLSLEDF
Method: Standard RSV polymerase assays were conducted in the presence of 10 nM recombinant RSV complex in a reaction buffer containing Tris-HCl pH7.5, 6 mM MgCl2, and other additives and substrates including RNA oligonucleotides and radionucleotides. Standard reactions were incubated in 96-well plate format for 2 h at 30° C., in the presence of increasing concentration of inhibitor. The reaction was stopped with 90 μL of 0.1M EDTA, and the reaction product was transferred to a “reading” 96-well plate. After washing of the plate, radiolabeled RNA products were detected according to standard procedures with a Trilux Topcount scintillation counter.

[2] = test system: Respiratory Syncytial Virus (RSV) long strain; assay: microbe, parasite or virus in culture; assay type: cell-based; details: human respiratory syncytial virus, Tables A and B list compounds by EC50 band
Method: as §1
After 5 days incubation, observe the CPE of cells in all wells. […] Six μl of cell counting kit-8 reagent (CCK-8, Dojindo Molecular Technologies Inc., CK04-20) are added to each well, which allows colorimetric assays to determine the number of viable cells through the dehydrogenase activity detection. After 3-4 hour incubation, the absorbance of each well is measured with a spectrophotometric plate reader at 450 nm wavelength, using a 630 nm filter as background according to manufacturer's instruction.

[3] = HEp-2, 120 h, read-out: 50% effective concentration (EC50), HEp-2 cells infected with RSV long strain, 5 days, CCK-8 readout

Structure (SMILES) | CC50 at 5 days [1] [µM] | IC50 (recombinant RSV complex) [µM] | also measured
COc1cc(C(=O)NCC(O)(c2ccc(OC)c(-c3ccc(F)c(Cl)c3)n2)C(F)(F)F)ccc1OC1CC1 (single isomer, unassigned) [Compound 247] | > 100 | < 10 | 
COc1cc(-c2csc3c(F)cccc23)nc(C(O)CNC(=O)c2cc(OC)c(OC)cc2O)c1 (stereo not shown) [Compound 110] | 10 to 100 |  | 
COc1cc(C(=O)NCC(C)(O)c2nc(-c3ccc(F)c(Cl)c3)c(C)n2C)ccc1OCCF (stereo not shown) [Compound 144] |  | < 100 | 
COc1cc(C(=O)NCC(C)(O)c2ccc(OC)c(-c3ccc(F)c(Cl)c3)n2)ccc1-c1cccnc1 (stereo not shown) [Compound 146] |  | < 10 | 
COc1cc(C(=O)NCC(C)(O)c2ccc(OC)c(-c3ccc(F)c(Cl)c3)n2)ccc1N1CCCC1=O (stereo not shown) [Compound 151] |  | < 10 | 
COc1cc(C(=O)NCC(O)c2ccc(OC)c(-c3ccc(F)c(Cl)c3)n2)ccc1OC(F)F (stereo not shown) [Compound 153] |  | < 10 | 
CCOc1ccc(C(=O)NCC(O)c2ccc(OC)c(-c3ccc(F)c(Cl)c3)n2)cc1OC (stereo not shown) [Compound 154] |  | < 10 | 
COc1cc(C(=O)NCC2(c3ccc(OC)c(-c4ccc(F)c(Cl)c4)n3)CNC(=O)O2)ccc1OCCO (stereo not shown) [Compound 180] | > 100 | < 100 | 
COc1cc(C(=O)NCC(O)(CN(CCN)CC(=O)O)c2ccc(OC)c(-c3ccc(F)c(Cl)c3)n2)ccc1OCCO (stereo not shown) [Compound 183] | > 100 | < 1 | 
COc1cc(C(=O)NCC(O)(CN2CCCCC2)c2ccc(OC)c(-c3ccc(F)c(Cl)c3)n2)ccc1OCCO (stereo not shown) [Compound 188] |  | < 10 | 
COc1cc(C(=O)NCC(O)(c2cc3c(c(-c4ccc(F)c(Cl)c4)n2)OCC3(C)C)C(F)(F)F)ccc1OC1CCNC1=O (stereo not shown) [Compound 203] |  | < 10 | 
COc1cc(C(=O)NCC(O)(Cn2ccnc2)c2cc3c(c(-c4ccc(F)c(Cl)c4)n2)OCC3(C)C)ccc1OCCO (stereo not shown) [Compound 225] |  | < 1 | 
COc1ccc(C(O)(CNC(=O)c2ccc3ncccc3c2OC)C(F)(F)F)nc1-c1ccc(F)c(Cl)c1 (stereo not shown) [Compound 269] | 10 to 100 |  | 
CC(C)(N)c1cc(-c2ccc(F)c(Cl)c2)nc(C(O)(CNC(=O)c2ccc3c(c2)OCO3)C(F)(F)F)c1 (stereo not shown) [Compound 274] |  | < 1 | EC50 [2, 3]: < 1 µM
CC(C)(N)c1cc(-c2ccc(F)c(Cl)c2)nc(C(O)(CNC(=O)c2cnc(Cl)s2)C(F)(F)F)c1 (stereo not shown) [Compound 276] |  | < 1 | EC50 [2, 3]: 1 to 50 µM
CC(C)(N)c1cc(-c2ccc(F)c(Cl)c2)nc(C(O)(CNC(=O)c2csc(Cl)n2)C(F)(F)F)c1 (stereo not shown) [Compound 280] |  | < 1 | EC50 ([2]; 120 h, read-out: 50% effective concentration (EC50), HEp-2 cells infected with RSV long strain, 5 days, CCK-8 readout): 1 to 50 µM
COc1cc(C(=O)NCC(O)(c2cc(CNC(C)=O)cc(-c3ccc(F)cc3)n2)C(F)(F)F)ccc1OC1CC1 (stereo not shown) [Compound 329] |  | < 1 | 
COc1cc(C(=O)NCC(O)(c2ccc(OC)c(-c3ccc(F)c(Cl)c3)n2)C(F)(F)F)ccc1OC1CCN(C)C1=O (stereo not shown) [Compound 350] |  | < 10 | 
COc1cc(C(=O)NCC(O)(c2ccc(OC)c(-c3ccc(F)c(Cl)c3)n2)C2CC2)ccc1OCc1ncnn1C (stereo not shown) [Compound 352] |  | < 10 | 
COc1cc(C(=O)NCC(C)(O)c2ccc(OC)c(-c3ccc(F)c(Cl)c3)n2)ccc1OCC#N (stereo not shown) [Compound 367] |  | < 1 | 
COc1cc(C(=O)NCC(C)(O)c2nc(-c3ccc(F)c(Cl)c3)ccc2F)ccc1OCC(N)=O (stereo not shown) [Compound 377] |  | < 10 | 
COc1cc(C(=O)NCC(C)(O)c2ccc(OC)c(-c3ccc(F)c(Cl)c3)n2)ccc1OCCN (stereo not shown) [Compound 382] |  | < 100 | 
COc1cc(C(=O)NCC(O)(c2cc(C(C)(C)NC(=O)OCc3ccccc3)cc(-c3ccc(F)c(Cl)c3)n2)C(F)(F)F)ccc1OC1CC1 (stereo not shown) [Compound 399] |  | < 1 | 
CNC(=O)COc1ccc(C(=O)NCC(O)(c2ccc(OC)c(-c3ccc(F)c(Cl)c3)n2)C(F)(F)F)cc1OC (stereo not shown) [Compound 402] |  | < 1 | 
COc1cc(C(=O)NCC(O)(c2ccc(OC)c(C3COc4c(F)cccc43)n2)C2CC2)ccc1OCCO (stereo not shown) [Compound 427] | > 100 | < 100 | 

Structure (SMILES) | CC50 at 5 days [1] [µM] | IC50 (recombinant RSV complex) [µM] | also measured
COc1cc(C(=O)NCC(C)(O)c2cccc(-c3ccc(F)c(Cl)c3)c2)ccc1OCCO (stereo not shown) [Compound 439] | > 100 | < 100 | 
COc1cc(C(=O)NCC(C)(O)c2csc(-c3ccc(F)c(Cl)c3)n2)ccc1OCCO (stereo not shown) [Compound 441] | > 100 | < 100 | 
COc1cc(C(=O)NCC(O)(c2ccc(OC)c(-c3cnc(Cl)s3)n2)C(F)(F)F)ccc1OCCO (stereo not shown) [Compound 468] | 10 to 100 |  | 
CC(C)(N)c1cc(-c2ccc(F)c(Cl)c2)nc(C(O)(CNC(=O)c2coc(Cl)n2)C(F)(F)F)c1 (stereo not shown) [Compound 478] |  | < 10 | EC50 [2, 3]: 1 to 50 µM
COc1cc(C(=O)NCC(O)(c2ccc(OCCN(C)C)c(-c3ccc(F)cc3)n2)C(F)(F)F)ccc1OC1CC1 (stereo not shown) [Compound 480] |  | < 10 | 
CC1(N)COc2c1cc(C(O)(CNC(=O)c1ccc(OC3CC3)c(CO)c1)C(F)(F)F)nc2-c1ccc(F)cc1 (stereo not shown) [Compound 481] |  | < 1 | 
COc1cc(C(=O)NCC(O)(c2cc(CCN)cc(-c3ccc(F)c(Cl)c3)n2)C(F)(F)F)ccc1OC1CC1 (stereo not shown) [Compound 522] |  | < 1 | 
COc1cc(C(=O)NCC(O)(c2cc(C(C)(C)N)cc(-c3ccc(F)cc3)n2)C(F)(F)F)ccc1OCC(F)(F)F (stereo not shown) [Compound 573] |  | < 1 | 
COc1cc(C(=O)NCC(O)(c2cc(CCCN)cc(-c3ccc(F)c(Cl)c3)n2)C(F)(F)F)ccc1OC1CC1 (stereo not shown) [Compound 591] |  | < 1 | EC50 [2, 3]: < 1 µM
COc1cc(C(=O)NC[C@](O)(c2cc3c(c(-c4ccc(C#N)cc4)n2)OC[C@@]3(C)N)C(F)(F)F)ccc1OCCO [Compound 604c] | 10 to 100 | < 10 | 
CC(C)(N)c1cc(-c2ccc(F)cc2)nc(C(O)(CNC(=O)c2cnc[nH]2)C(F)(F)F)c1 (stereo not shown) [Compound 613] | > 100 | < 10 | 
COc1cc(C(=O)NCC(O)(c2cc(C(C)(C)N)cc(-c3ccc(F)c(Cl)c3)n2)C(F)(F)F)ccc1OCc1nnn[nH]1 (stereo not shown) [Compound 616] | > 100 | < 10 | 
CCOC(=O)COc1ccc(C(=O)NCC(O)(c2cc(C(C)(C)N)cc(-c3ccc(F)c(Cl)c3)n2)C(F)(F)F)cc1OC (stereo not shown) [Compound 617] | 10 to 100 | < 1 | 
COc1cc(C(=O)NCC(O)(c2cc(C(C)(C)N)cc(-c3ccc(F)c(Cl)c3)n2)C(F)(F)F)ccc1OCC(=O)NS(C)(=O)=O (stereo not shown) [Compound 618] |  | < 1 | 
COc1cc(C(=O)NCC(O)(c2cc3c(c(-c4ccc(F)cc4)n2)OCC3(C)N)C(F)(F)F)ccc1OCS(N)(=O)=O (stereo not shown) [Compound 648] |  | < 1 | 
COc1cc(C(=O)NCC(O)(c2cc3c(c(-c4ccc(F)cc4)n2)OCC32CCCN2)C(F)(F)F)ccc1OCCO (stereo not shown) [Compound 652] |  | < 1 | 
COc1cc(C(=O)NCC(O)(c2cc(C(C)(C)N)cc(-c3ccc(C(F)(F)F)cc3)n2)C(F)(F)F)ccc1OCCO (stereo not shown) [Compound 658] |  | < 1 | 
COc1ccc(-c2cc(C(C)(C)N)cc(C(O)(CNC(=O)c3ccc(OCCO)c(OC)c3)C(F)(F)F)n2)cn1 (stereo not shown) [Compound 660] |  | < 10 | 
COc1cc(C(=O)NCC(O)(c2cc3c(c(-c4ccc(Cl)nc4)n2)OCC3(C)N)C(F)(F)F)ccc1OC1CC1 (stereo not shown) [Compound 668] |  | < 1 | 
COc1cc(C(=O)NCC(O)(c2cc(C(C)(N)C(F)F)cc(-c3ccc(F)cc3)n2)C(F)(F)F)ccc1OCCO (stereo not shown) [Compound 669] |  | < 1 | 
COc1cc(C(=O)NCC(O)(c2cc3c(c(-c4ccnc(C)c4)n2)OCC3(C)N)C(F)(F)F)ccc1OCCO (stereo not shown) [Compound 670] | > 100 |  | 
COc1cc(C(=O)NCC(O)(c2cc3c(c(-c4ccc(C)nc4)n2)OCC3(C)N)C(F)(F)F)ccc1OCCO (stereo not shown) [Compound 671] | > 100 |  | 
COc1cc(C(=O)NCC(O)(c2cc3c(c(-c4ccc(C(N)=O)cc4)n2)OCC3(C)N)C(F)(F)F)ccc1OCCO (stereo not shown) [Compound 674] | > 100 |  | 
COc1cc(C(=O)NCC(O)(c2cc(C(C)(N)CF)cc(-c3ccc(F)cc3)n2)C(F)(F)F)ccc1OCCO (stereo not shown) [Compound 676] |  | < 1 | 
